According to US9518052B2, “Pyrazolopyridines and pyrazolopyrimidines” (Pfizer Inc., priority 2014, dated 2016):
Where a name gives a salt, the structure may show the parent alone.

Key:
Type in all cases: biochemical
Conditions in all cases: Caliper assay at 1 mM ATP
[1] = molecular target: TYK2 (Homo sapiens (Human), UniProt P29597); test: JAK Caliper Enzyme Assay at 1 mM ATP (TYK2)
[2] = molecular target: JAK2 (Homo sapiens (Human), UniProt O60674); test: JAK Caliper Enzyme Assay at 1 mM ATP (JAK2)
Chain of JAK2 (O60674 whole entry, species assumed): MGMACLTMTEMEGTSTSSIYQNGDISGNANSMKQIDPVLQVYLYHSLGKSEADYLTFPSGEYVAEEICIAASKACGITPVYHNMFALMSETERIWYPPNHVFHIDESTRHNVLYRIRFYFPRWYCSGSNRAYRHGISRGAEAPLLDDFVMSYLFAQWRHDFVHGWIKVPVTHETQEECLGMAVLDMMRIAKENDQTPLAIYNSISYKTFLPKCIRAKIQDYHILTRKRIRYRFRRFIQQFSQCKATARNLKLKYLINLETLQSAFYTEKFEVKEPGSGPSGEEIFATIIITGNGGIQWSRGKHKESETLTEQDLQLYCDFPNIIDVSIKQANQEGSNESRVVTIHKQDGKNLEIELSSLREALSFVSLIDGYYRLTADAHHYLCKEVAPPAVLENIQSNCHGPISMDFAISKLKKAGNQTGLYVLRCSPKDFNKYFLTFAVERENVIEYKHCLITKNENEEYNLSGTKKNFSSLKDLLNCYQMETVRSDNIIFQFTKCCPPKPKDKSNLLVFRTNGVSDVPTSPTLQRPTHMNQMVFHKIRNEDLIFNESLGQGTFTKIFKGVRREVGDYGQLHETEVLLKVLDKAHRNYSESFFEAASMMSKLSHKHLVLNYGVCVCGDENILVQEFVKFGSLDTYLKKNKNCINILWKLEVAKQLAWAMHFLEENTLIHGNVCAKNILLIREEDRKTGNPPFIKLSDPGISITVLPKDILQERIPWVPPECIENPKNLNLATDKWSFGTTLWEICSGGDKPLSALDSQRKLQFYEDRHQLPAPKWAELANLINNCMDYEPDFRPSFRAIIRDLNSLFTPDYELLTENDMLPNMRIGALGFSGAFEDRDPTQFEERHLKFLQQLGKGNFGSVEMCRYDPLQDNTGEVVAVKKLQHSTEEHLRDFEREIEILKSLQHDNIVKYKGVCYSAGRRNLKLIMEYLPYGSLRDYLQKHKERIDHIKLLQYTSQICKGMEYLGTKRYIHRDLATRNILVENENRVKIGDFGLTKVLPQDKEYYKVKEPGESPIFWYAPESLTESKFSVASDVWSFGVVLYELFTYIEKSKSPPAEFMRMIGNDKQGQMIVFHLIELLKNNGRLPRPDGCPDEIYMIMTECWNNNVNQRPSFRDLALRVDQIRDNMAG

[3] = molecular target: JAK1 (Homo sapiens (Human), UniProt P23458); test: JAK Caliper Enzyme Assay at 1 mM ATP (JAK1)
Chain of JAK1 (P23458 whole entry, species assumed): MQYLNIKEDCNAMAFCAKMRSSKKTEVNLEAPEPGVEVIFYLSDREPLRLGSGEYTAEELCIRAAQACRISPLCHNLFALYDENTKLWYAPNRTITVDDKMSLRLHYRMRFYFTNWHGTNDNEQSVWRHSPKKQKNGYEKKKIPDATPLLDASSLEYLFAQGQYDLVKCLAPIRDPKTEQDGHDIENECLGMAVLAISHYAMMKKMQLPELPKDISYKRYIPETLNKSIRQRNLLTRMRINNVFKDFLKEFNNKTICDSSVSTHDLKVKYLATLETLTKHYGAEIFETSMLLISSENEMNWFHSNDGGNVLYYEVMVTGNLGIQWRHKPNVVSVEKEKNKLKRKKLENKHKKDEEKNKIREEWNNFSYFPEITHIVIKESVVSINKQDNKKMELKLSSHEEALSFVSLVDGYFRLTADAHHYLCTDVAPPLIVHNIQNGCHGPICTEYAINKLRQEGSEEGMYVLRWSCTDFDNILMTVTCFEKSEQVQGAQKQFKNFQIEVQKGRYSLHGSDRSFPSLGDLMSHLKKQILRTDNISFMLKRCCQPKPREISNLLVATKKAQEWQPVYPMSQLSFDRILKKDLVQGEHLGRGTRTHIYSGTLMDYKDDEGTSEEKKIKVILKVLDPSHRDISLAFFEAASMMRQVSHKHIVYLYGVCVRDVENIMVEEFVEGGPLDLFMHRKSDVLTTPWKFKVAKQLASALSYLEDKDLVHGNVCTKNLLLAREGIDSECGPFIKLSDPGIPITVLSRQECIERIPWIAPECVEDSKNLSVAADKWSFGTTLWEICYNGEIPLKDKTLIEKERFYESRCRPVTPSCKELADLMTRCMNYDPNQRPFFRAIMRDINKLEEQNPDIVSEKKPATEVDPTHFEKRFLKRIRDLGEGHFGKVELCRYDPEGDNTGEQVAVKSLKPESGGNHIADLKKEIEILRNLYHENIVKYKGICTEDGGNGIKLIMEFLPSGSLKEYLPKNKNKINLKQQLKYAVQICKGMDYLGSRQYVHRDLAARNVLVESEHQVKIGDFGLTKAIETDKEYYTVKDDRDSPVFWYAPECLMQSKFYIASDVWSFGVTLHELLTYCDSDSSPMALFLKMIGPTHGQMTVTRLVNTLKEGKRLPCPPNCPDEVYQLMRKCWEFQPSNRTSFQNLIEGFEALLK

[4] = molecular target: JAK3 (Homo sapiens (Human), UniProt P52333); test: JAK Caliper Enzyme Assay at 1 mM ATP (JAK3)
Chain of JAK3 (P52333 whole entry, species assumed): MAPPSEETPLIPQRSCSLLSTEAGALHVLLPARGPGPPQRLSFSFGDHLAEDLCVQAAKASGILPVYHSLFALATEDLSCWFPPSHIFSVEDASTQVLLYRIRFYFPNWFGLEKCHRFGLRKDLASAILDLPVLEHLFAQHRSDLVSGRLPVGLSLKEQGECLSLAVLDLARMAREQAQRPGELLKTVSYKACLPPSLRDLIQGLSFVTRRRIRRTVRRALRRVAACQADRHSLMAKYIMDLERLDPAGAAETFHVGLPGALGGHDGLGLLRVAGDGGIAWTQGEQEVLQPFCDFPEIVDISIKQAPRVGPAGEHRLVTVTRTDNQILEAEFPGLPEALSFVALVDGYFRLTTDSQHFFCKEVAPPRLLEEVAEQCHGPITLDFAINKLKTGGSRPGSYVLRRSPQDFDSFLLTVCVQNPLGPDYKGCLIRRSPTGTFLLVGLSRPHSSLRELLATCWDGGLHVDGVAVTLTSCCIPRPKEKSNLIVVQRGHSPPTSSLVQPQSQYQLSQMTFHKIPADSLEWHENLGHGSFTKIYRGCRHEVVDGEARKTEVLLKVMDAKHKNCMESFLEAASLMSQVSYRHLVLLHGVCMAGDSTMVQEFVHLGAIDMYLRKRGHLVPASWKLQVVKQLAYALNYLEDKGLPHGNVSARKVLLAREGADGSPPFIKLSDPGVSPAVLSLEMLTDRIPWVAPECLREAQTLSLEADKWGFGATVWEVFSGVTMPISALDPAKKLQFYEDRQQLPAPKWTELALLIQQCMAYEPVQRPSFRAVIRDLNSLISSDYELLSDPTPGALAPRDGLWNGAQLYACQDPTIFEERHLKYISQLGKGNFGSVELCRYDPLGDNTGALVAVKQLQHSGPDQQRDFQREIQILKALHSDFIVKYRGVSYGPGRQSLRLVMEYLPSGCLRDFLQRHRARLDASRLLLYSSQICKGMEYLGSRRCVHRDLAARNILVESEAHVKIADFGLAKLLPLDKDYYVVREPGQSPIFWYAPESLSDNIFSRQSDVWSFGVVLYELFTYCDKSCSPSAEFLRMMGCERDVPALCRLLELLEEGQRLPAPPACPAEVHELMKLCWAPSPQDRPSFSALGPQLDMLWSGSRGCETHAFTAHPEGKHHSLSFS

Chain of TYK2 (P29597 whole entry, species assumed): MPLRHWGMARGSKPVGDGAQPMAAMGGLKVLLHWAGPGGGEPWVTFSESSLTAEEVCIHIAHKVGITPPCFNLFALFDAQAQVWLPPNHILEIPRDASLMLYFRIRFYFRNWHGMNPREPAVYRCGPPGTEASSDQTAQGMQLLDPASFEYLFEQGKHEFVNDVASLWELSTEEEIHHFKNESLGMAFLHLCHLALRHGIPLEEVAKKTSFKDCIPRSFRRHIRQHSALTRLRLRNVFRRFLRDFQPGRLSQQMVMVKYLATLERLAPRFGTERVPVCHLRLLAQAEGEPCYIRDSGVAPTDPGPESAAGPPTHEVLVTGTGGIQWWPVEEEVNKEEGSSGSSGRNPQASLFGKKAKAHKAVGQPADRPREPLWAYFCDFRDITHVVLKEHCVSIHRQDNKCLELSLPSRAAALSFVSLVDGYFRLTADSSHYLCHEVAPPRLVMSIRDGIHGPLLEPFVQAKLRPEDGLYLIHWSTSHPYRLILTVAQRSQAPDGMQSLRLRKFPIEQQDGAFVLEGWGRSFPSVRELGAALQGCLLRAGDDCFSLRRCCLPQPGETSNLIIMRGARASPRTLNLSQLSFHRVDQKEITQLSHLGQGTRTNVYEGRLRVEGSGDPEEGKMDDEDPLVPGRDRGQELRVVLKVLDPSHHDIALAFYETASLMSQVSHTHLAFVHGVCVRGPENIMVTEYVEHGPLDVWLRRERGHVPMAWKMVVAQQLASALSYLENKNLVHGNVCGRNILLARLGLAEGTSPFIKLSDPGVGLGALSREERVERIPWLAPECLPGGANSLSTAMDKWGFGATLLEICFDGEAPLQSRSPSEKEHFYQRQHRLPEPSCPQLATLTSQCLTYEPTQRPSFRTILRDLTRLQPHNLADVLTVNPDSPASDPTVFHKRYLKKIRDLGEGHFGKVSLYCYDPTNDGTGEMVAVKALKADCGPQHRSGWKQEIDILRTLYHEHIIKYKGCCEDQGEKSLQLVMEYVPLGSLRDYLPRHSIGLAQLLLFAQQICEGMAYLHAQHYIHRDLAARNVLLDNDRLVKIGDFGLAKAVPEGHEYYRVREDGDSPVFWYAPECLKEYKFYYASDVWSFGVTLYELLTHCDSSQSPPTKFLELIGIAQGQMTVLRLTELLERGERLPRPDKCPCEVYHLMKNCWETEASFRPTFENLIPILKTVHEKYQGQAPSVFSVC

Structure (SMILES) | IC50 [1] [nM] | IC50 [2] [nM] | IC50 [3] [nM] | IC50 [4] [nM]
CCN(c1ccc(C)cc1CNc1nc(-c2cc(F)c(O)cc2CC(F)(F)F)cc2[nH]nc(C(N)=O)c12)S(C)(=O)=O [Example 91, 4-({2-[ethyl(methylsulfonyl)amino]-5-methylbenzyl}amino)-6-[5-fluoro-4-hydroxy-2-(2,2,2-trifluoroethyl)phenyl]-1H-pyrazolo[4,3-c]pyridine-3-carboxamide] | 865 | 128 | 28.7 | 462
CCN(c1ccc(Cl)cc1CNc1nc(-c2cc(F)c(O)cc2CC(F)(F)F)cc2[nH]nc(C(N)=O)c12)S(C)(=O)=O [Example 84, 4-((5-chloro-2-(N-ethylmethylsulfonamido)benzyl)amino)-6-(5-fluoro-4-hydroxy-2-(2,2,2-trifluoro-ethyl)phenyl)-1H-pyrazolo[4,3-c]pyridine-3-carboxamide] | 880 | 142 | 27.6 | 537
CN(c1ccccc1CNc1nc(-c2cc(F)c(O)cc2CC(F)(F)F)cc2[nH]nc(-n3cccn3)c12)S(C)(=O)=O [Example 163, N-{2-[({6-[5-Fluoro-4-hydroxy-2-(2,2,2-trifluoroethyl)phenyl]-3-(1H-pyrazol-1-yl)-1H-pyrazolo[4,3-c]pyridin-4-yl}amino)methyl]phenyl}-N-methylmethanesulfonamide] | 356 | 150 | 32.9 | 491
CCN(c1ccccc1CNc1nc(-c2cc(F)c(O)cc2CC(F)(F)F)nc2[nH]nc(C(=O)NC)c12)S(C)(=O)=O [Example 103, 4-((2-(N-ethylmethylsulfonamido)-benzyl)amino)-6-(5-fluoro-4-hydroxy-2-(2,2,2-trifluoroethyl)phenyl)-N-methyl-1H-pyrazolo[3,4-d]pyrimidine-3-carboxamide] | 349 | 31 | 5 | 92.6
CN(c1ncc(F)cc1CNc1nc(-c2cc(F)c(O)cc2CC(F)(F)F)cc2[nH]nc(C(N)=O)c12)S(C)(=O)=O [Example 78, 6-[5-Fluoro-4-hydroxy-2-(2,2,2-trifluoroethyl)phenyl]-4-[({5-fluoro-2-[methyl(methyl-sulfonyl)amino]pyridin-3-yl}methyl)amino]-1H-pyrazolo[4,3-c]pyridine-3-carboxamide] | 930 | 39.4 | 5.9 | 89.9
CCN(c1ncccc1CNc1nc(-c2cc(F)c(O)cc2CC(F)(F)F)cc2[nH]nc(C(=O)NC)c12)S(C)(=O)=O [Example 63, 4-[({2-[ethyl(methylsulfonyl)amino]pyridin-3-yl}methyl)amino]-6-[5-fluoro-4-hydroxy-2-(2,2,2-trifluoroethyl)phenyl]-N-methyl-1H-pyrazolo[4,3-c]pyridine-3-carboxamide] | 107 | 22.5 | 5 | 82.1
CCN(c1ccc(O)cc1CNc1nc(-c2cc(F)c(O)cc2CC(F)(F)F)cc2[nH]nc(C(=O)NC)c12)S(=O)(=O)c1ccccc1 [Example 36, 4-({2-[ethyl(phenyl-sulfonyl)amino]-5-hydroxybenzyl}amino)-6-[5-fluoro-4-hydroxy-2-(2,2,2-trifluoroethyl)phenyl]-N-methyl-1H-pyrazolo[4,3-c]pyridine-3-carboxamide] | 364 | 401 | 75 | 1230
CNC(=O)c1n[nH]c2cc(-c3cc(F)c(O)cc3CC(F)(F)F)nc(NCc3ncccc3N(C)S(C)(=O)=O)c12 [Example 55, 6-[5-Fluoro-4-hydroxy-2-(2,2,2-trifluoroethyl)phenyl]-N-methyl-4-[({3-[methyl(methylsulfonyl)amino]pyridin-2-yl}methyl)amino]-1H-pyrazolo[4,3-c]pyridine-3-carboxamide] | 45.9 | 13.7 | 2.1 | 54
CNC(=O)c1n[nH]c2nc(-c3cc(F)c(O)cc3CC(F)(F)F)nc(NCc3ccccc3N(C)S(N)(=O)=O)c12 [Example 109, 6-(5-Fluoro-4-hydroxy-2-(2,2,2-trifluoroethyl)phenyl)-N-methyl-4-((2-(methyl(sulfamoyl)amino)benzyl)amino)-1H-pyrazolo[3,4-d]pyrimidine-3-carboxamide] | 674 | 31.2 | 6.4 | 107
CCN(c1ncc(Cl)cc1CNc1nc(-c2cc(F)c(O)cc2CC(F)(F)F)cc2[nH]nc(C(N)=O)c12)S(C)(=O)=O [Example 71, 4-[({5-chloro-2-[ethyl(methylsulfonyl)amino]pyridin-3-yl}methyl)amino]-6-[5-fluoro-4-hydroxy-2-(2,2,2-trifluoroethyl)phenyl]-1H-pyrazolo[4,3-c]pyridine-3-carboxamide] | 2750 | 156 | 44.1 | 359

Now those with a lower IC50 [1], led by results:

IC50 [1] [nM] | IC50 [2] [nM] | IC50 [3] [nM] | IC50 [4] [nM] | Structure (SMILES)
12.1 | 17 | 3.4 | 84.5 | CCc1cc(O)c(F)cc1-c1cc2[nH]nc(C(=O)NC)c2c(NCc2ccccc2N(CC)S(=O)(=O)CC)n1 [Example 2, 4-({2-[ethyl(ethylsulfonyl)-amino]benzyl}amino)-6-(2-ethyl-5-fluoro-4-hydroxyphenyl)-N-methyl-1H-pyrazolo[4,3-c]pyridine-3-carboxamide]
4.8 | 5.9 | 0.9 | 30.9 | CCc1cc(O)c(F)cc1-c1cc2[nH]nc(C(=O)NC)c2c(NCc2ccccc2N(C)S(C)(=O)=O)n1 [Example 19, 6-(2-ethyl-5-fluoro-4-hydroxy-phenyl)-N-methyl-4-({2-[methyl(methyl-sulfonyl)amino]benzyl}amino)-1H-pyrazolo[4,3-c]pyridine-3-carboxamide]
23.2 | 18.1 | 2.7 | 77.1 | CCN(c1ccccc1CNc1nc(-c2cc(F)c(O)cc2CC(F)(F)F)cc2[nH]nc(C(N)=O)c12)S(C)(=O)=O [Example 90, 4-({2-[ethyl(methylsulfonyl)amino]benzyl}amino)-6-[5-fluoro-4-hydroxy-2-(2,2,2-trifluoroethyl)-phenyl]-1H-pyrazolo[4,3-c]pyridine-3-carboxamide]
15.8 | 4.5 | 1 | 16.2 | CCc1cc(O)c(F)cc1-c1cc2[nH]ncc2c(N(C)Cc2ccccc2N(CC)S(C)(=O)=O)n1 [Example 145, N-Ethyl-N-[2-({[6-(2-ethyl-5-fluoro-4-hydroxyphenyl)-1H-pyrazolo[4,3-c]pyridin-4-yl](methyl)amino}methyl)phenyl]methanesulfonamide hydrochloride]
15.3 | 15.8 | 3.1 | 84.9 | CCc1cc(O)c(F)cc1-c1cc2[nH]nc(C(=O)NC)c2c(NCc2cc(Cl)ccc2N(C)S(C)(=O)=O)n1 [Example 6, 4-({5-chloro-2-[methyl(methyl-sulfonyl)amino]benzyl}amino)-6-(2-ethyl-5-fluoro-4-hydroxy-phenyl)-N-methyl-1H-pyrazolo[4,3-c]pyridine-3-carboxamide]
